The source of these data is patent publication US9476099B2 (TRUSTEES OF DARTMOUTH COLLEGE, priority 2012, dated 2016).

For assay [1], the system named is EC cell lines (NT2/D1, NT2D1/R1, 833K, 833KCP, and Tera-1). The assay can be described thus: Cell-Titre Glo viable cell growth and survival, all EC cell lines. It counts as cell-based. The settings on record: 10 to 5000 nM added fresh each day for three days; FIG. 1. On the procedure: Indicated doses of decitabine were added fresh each day for three days to exponentially growing cultures. Viable cell growth and survival were measured. Data are normalized to no drug treatment. EC cells are NT2/D1, NT2D1/R1, 833K, 833KCP, and Tera-1. Data are the average of 3 experiments in biological duplicate except for MCF-7 cells, which were assayed twice. Error bars are standard deviation (S.D.).
Cell growth and viability of five EC cell lines (NT2/D1, NT2D1/R1, 833K, 833KCP, and Tera-1) were determined, including two cell lines that are cisplatin-resistant (NT2/D1-R1 and 833KCP). Three control somatic tumor cell lines were also tested (HCT116, MCF7 and U2OS). […] Viable cell growth and survival were measured using Cell-Titre Glo (Promega) assays. […] These higher values are similar to the values shown in FIG. 1 for somatic tumor cell lines (MCF7, U2OS and HCT116).
NT2/D1, NT2D1-R1, 833K, 833K-CP, Tera-1, U20S, and HCT116 cells were cultured in DMEM with 10% FBS supplemented with glutamine and antibiotics except for MCF7 cells that were cultured in F12-DMEM. The derivation of the NT2/D1-resistant NT2/D1-R1 cell line has been previously described (Curtin et al. 2001. Oncogene 20:2559-2569; Kerley-Hamilton et al. 2007. Biochim. Biophys. Acta 1769:209-219). Cells were treated with the indicated dosages of 5-azadeoxycytidine (5-aza-CdR) for 3 days. This drug was replenished each day. […]

The test system of a further assay is NT2/D1 cells. The assay can be described thus: Gene expression microarray with PAM cluster analysis (Tables 1-5). The format is cell-based, human. The settings on record: 1.5-fold or greater. On the procedure:
The cisplatin treatment protocol has been previously described (Kerley-Hamilton et al. 2005. Oncogene 24:6090-6100).
The same effect was not observed in cells treated with cisplatin; gene expression levels were not dramatically altered in cisplatin-treated cells. […] The genes clustered into distinct patterns.
Next, partitioning around medoids (PAM) analysis was performed on the 1130 genes whose expression levels changed by 1.5-fold or greater as compared to control treatment. […] Changes in gene expression levels of representative genes for each cluster were confirmed in independent samples by real-time PCR (FIG. 10).
Expression analysis was performed on the […] HumanHT-12 v3 or […] HumanHT-12 v4 bead chip arrays ([…]) and scanned on the BeadArray Reader ([…]) according to manufacturer's instructions.

Assay [2] has as its system gene promoters in NT2/D1 cells. Nature of the assay: Global DNA promoter methylation analysis, HumanMethylation27 BeadChip. The settings on record: 3 day low dose decitabine. It counts as cell-based, human. On the procedure:
However, methylation changes were less robust in the experiments in NT2/D1 cells. Only 12 genes were identified as having significant decreases in promoter methylation. […] These six genes included RIN1, SOX15, TLR4, GPER, TRIM54, and CD164L2.
DNA methylation analysis was performed in samples in triplicate using the […] […] assay with the HumanMethylation27 BeadChip ([…]) and the BeadChip was scanned on the BeadArray Reader ([…]), according to the manufacturer's instructions. Raw data was normalized and analyzed with Genome Studio software ([…]). The HumanMethylation27 BeadChip assays 27,578 CpGs covering more than 14,000 genes, mostly from promoter regions. […] Hierarchical clustering was performed as stated above. HumanMethylation27 BeadChip data and gene expression microarray data were submitted to NCBI GEO.

For assay [3], the system named is non-seminiferous testicular cancer (germ cell testicular cancer). The settings on record: 75 mg/m^2, 3 infusions in one day, repeated once a week for 5 weeks; Clavel et al. 1992; cited from earlier work.

Take `Nc1ncn([C@H]2C[C@H](O)[C@@H](CO)O2)c(=O)n1` [decitabine, 5-aza-deoxycytidine]: the “growth of all EC cell lines” value in assay [1] was “inhibited”. The “Cluster 1: genes primarily up-regulated only with 3 days of decitabine treatment” value with NT2/D1 cells (10 nM, 3 days) amounted to 704 genes. Moreover, in the assay on NT2/D1 cells, the “Cluster 3: genes upregulated by both decitabine treatment and cisplatin treatment” value is recorded as 71 genes; the “Cluster 4: genes down-regulated by decitabine, enriched in pluripotency genes” value amounted to 186 genes; the “Cluster 5: genes down-regulated by both decitabine treatment and cisplatin treatment” value is recorded as 88 genes. Besides, the “genes with significant decreases in promoter methylation” value in assay [2] turned out to be 12 genes. Also, in assay [3], the “activity in Phase II clinical trial patients” value is listed as “no activity”.
